The target of the assay is T1, Q46 protein aggregates (Homo sapiens, UniProt P42858).
T1 construct: fused on or other part: GST at the N-terminus, cut off with thrombin before the test to start aggregation; The wells held aggregated Q46 without GST
The experiment in a line: Q46 radioligand binding assay (RBA). The settings on record: 10 nM ligand [3H3]MK-3328. Here is the method: Q46 Radioligand Binding Assay
For radioligand binding assays (RBA) GST-Q46 protein was generated based on a previous publication (Scherzinger et al. Cell, Vol. 90, 549-558, Aug. 8, 1997). For experiments 33 μM GST-Q46 was incubated with 150 μg/mL thrombin in assay buffer (150 mM NaCl, 50 mM Tris pH 8.0) and 2 mM CaCl2 for 16 hours at 37° C. Aggregated Q46 was pelleted by centrifugation for 5 minutes at 13,000 rpm in a bench top centrifuge and re-dissolved in the same volume of assay buffer. Test compounds were prepared by titration in DMSO at 11 concentrations from 33 μM to 1 nM. For the RBA, Q46 protein aggregates and test compounds were pre-incubated in assay buffer for 20 minutes at room temperature, in 140 μL/well in a 96-well plate (pp, round bottom). Then, ligand was added in 10 μL/well and incubated for 60 minutes at 37° C. Final assay concentrations were 1 μM to 30 pM test compound, 5 μM Q46 protein (equivalent monomer concentration) and 10 nM ligand [^3H3]MK-3328 (Harrision et al., ACS Med. Chem. Lett., 2 (2011), pp 498-502). Samples were transferred onto GF/B filter plates and washed 2× with 200 μL PBS using a Filtermate Harvester. After drying filter plates for 1 hour at 37° C., the back of the plates were sealed with foil and 30 μL/well scintillation fluid (Packard MicroScint 40) added, incubated for 15 minutes in the dark and counted in a TopCount reader. For analysis, replicate data from independent assay plates were normalized towards 0% and 100% inhibition using control wells of vehicle (0% inhibition) and 3 μM unlabelled MK-3328 (100% inhibition). IC50 values were determined with a sigmoidal inhibition model with four variables (top, bottom, slope, IC50) in a global fit using the normalized replicate data.

19 compounds from US12258355B2, “Probes for imaging huntingtin protein” (CHDI Foundation, Inc., priority 2014, dated 2025) can be followed below.

T1 sequence (P42858 with tags, fused parts or gaps with the stated changes, form open): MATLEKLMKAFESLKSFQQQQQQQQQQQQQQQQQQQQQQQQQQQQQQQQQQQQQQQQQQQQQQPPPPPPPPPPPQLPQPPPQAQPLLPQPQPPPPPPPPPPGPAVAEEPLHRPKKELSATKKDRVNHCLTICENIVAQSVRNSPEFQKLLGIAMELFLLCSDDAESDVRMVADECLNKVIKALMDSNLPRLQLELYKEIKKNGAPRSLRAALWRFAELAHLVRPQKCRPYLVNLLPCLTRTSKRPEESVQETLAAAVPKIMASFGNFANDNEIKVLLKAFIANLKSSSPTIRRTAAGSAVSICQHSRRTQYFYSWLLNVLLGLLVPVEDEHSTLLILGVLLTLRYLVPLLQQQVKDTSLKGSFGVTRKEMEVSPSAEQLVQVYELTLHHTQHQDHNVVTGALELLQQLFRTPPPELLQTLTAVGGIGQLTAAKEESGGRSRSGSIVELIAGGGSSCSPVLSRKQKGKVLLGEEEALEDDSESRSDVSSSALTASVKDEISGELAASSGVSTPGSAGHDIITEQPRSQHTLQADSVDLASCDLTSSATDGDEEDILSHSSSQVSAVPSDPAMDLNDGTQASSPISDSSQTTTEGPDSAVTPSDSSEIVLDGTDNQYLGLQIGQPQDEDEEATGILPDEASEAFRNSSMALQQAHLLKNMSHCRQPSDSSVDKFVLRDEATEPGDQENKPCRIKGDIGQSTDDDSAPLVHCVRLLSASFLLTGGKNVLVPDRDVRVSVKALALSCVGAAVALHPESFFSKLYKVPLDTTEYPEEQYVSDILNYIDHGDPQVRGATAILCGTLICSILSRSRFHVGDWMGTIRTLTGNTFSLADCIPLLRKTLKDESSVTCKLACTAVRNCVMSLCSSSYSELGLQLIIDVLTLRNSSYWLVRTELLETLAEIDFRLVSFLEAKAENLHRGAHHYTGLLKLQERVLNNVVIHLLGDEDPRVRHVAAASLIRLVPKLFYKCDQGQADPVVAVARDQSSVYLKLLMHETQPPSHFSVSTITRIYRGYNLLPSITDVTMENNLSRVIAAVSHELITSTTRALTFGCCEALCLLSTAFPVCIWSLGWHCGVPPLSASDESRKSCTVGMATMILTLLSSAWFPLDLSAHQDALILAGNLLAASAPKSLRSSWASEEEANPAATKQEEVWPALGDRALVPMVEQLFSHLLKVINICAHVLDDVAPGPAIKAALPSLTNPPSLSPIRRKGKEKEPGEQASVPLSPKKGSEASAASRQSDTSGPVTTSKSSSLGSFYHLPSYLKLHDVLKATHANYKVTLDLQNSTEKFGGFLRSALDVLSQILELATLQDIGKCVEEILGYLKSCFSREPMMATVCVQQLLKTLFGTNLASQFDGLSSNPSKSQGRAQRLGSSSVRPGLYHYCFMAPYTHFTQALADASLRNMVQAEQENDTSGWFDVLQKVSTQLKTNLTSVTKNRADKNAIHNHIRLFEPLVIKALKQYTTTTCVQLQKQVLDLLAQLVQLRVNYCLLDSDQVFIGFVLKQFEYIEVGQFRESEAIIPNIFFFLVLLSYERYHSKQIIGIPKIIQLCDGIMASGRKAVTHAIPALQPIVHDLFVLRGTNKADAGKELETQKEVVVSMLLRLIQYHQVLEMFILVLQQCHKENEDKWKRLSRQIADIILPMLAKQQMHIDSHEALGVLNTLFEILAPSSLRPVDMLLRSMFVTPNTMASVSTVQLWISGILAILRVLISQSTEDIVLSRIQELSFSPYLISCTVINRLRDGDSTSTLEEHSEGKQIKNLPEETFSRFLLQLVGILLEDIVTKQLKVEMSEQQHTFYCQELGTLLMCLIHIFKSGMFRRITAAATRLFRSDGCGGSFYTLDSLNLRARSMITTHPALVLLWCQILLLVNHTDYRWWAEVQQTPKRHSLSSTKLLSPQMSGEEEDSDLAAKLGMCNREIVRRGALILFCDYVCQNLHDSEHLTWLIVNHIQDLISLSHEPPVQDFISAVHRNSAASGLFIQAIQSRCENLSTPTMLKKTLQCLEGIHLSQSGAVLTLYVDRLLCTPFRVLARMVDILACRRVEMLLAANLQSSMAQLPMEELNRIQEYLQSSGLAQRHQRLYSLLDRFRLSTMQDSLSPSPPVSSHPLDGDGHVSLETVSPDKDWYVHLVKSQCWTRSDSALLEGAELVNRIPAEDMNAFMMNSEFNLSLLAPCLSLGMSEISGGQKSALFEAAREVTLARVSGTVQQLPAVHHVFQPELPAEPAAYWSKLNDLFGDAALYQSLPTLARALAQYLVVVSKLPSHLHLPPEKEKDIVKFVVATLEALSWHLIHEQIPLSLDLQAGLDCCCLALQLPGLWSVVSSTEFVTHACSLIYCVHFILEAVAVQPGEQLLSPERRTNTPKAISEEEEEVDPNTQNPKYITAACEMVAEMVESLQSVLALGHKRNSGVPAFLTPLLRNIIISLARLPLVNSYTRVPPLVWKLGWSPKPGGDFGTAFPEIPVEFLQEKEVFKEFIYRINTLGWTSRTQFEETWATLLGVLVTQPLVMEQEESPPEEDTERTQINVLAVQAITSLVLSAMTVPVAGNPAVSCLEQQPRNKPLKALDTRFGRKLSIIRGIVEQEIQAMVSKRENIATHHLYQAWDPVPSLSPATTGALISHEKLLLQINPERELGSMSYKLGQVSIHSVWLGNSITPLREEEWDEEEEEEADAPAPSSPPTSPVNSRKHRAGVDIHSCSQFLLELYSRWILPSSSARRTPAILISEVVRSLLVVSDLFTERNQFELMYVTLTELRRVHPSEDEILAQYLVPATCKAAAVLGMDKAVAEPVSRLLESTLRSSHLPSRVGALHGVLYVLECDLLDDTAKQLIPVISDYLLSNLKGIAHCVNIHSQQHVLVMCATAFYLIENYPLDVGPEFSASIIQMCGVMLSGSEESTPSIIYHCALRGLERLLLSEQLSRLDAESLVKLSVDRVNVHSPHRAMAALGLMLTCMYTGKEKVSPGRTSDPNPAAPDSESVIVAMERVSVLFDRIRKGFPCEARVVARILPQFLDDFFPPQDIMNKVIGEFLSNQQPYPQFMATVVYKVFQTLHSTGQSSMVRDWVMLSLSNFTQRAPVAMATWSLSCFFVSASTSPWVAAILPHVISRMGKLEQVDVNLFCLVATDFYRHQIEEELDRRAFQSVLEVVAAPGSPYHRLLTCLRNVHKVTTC

`O=C(Nc1ccc2oc(-c3cccnc3)nc2c1)c1nnc(-c2ccccc2)o1` yielded an IC50 of under 100 nM.
The same measure for `OC(Cc1ccc2oc(-c3cccnc3)nc2c1)c1ccccn1` (stereo not shown) [1-(pyridin-2-yl)-2-[2-(pyridin-3-yl)-1,3-benzoxazol-5-yl]ethan-1-ol]: 100 to 500 nM; for `O=C(Cc1ccc2oc(-c3cccnc3)nc2c1)c1ccccn1` [1-(pyridin-2-yl)-2-[2-(pyridin-3-yl)-1,3-benzoxazol-5-yl]ethan-1-one]: 100 to 500 nM.
The same measure for `Cn1cc(-c2cc3cc(OCc4cncnc4)ccc3o2)c(C#N)n1` [1-methyl-4-[5-(pyrimidin-5-ylmethoxy)-1-benzofuran-2-yl]-1H-pyrazole-3-carbonitrile]: under 100 nM.
`Cn1cc(COc2ccc3oc(-c4cccnc4)nc3c2)ncc1=O` [1-methyl-5-({[2-(pyridin-3-yl)-1,3-benzoxazol-5-yl]oxy}methyl)-1,2-dihydropyrazin-2-one] displayed an IC50 of 100 to 500 nM.
`Cn1nc(C(=O)Nc2ccc3oc(-c4ccc(=O)n(C)n4)nc3c2)ccc1=O` [1-methyl-N-[2-(1-methyl-6-oxo-1,6-dihydropyridazin-3-yl)-1,3-benzoxazol-5-yl]-6-oxo-1,6-dihydropyridazine-3-carboxamide] showed an IC50 of under 100 nM.
Compound `Cn1cc(C(=O)Nc2ccc3oc(-c4cccnc4)nc3c2)cn1` [1-methyl-N-[2-(pyridin-3-yl)-1,3-benzoxazol-5-yl]-1H-pyrazole-4-carboxamide] registered an IC50 of under 100 nM.
In turn, `COc1ccc(COc2ccc3oc(-c4cc5ccccc5o4)nc3c2)nc1` [2-(1-benzofuran-2-yl)-5-[(5-methoxypyridin-2-yl)methoxy]-1,3-benzoxazole] gave an IC50 of under 100 nM.
`COc1ccc(COc2ccc3oc(-c4ccc5occc5c4)nc3c2)nc1` [2-(1-benzofuran-5-yl)-5-[(5-methoxypyridin-2-yl)methoxy]-1,3-benzoxazole] had an IC50 of under 100 nM.
`COc1ccc(COc2ccc3oc(-n4ccnc4)nc3c2)nc1` [2-(1H-imidazol-1-yl)-5-[(5-methoxypyridin-2-yl)methoxy]-1,3-benzoxazole] showed an IC50 of under 100 nM.
In turn, `COc1ccc(COc2ccc3oc(C4Cc5ccccc5O4)nc3c2)nc1` (stereo not shown) [2-(2,3-dihydro-1-benzofuran-2-yl)-5-[(5-methoxypyridin-2-yl)methoxy]-1,3-benzoxazole] had an IC50 of under 100 nM.
The result for `Brc1cnccc1-c1nc2ccc(OCCN3CCOCC3)cc2s1` [2-(3-bromopyridin-4-yl)-6-[2-(morpholin-4-yl)ethoxy]-1,3-benzothiazole] reads under 100 nM.
`COc1ccc(COc2ccc3oc(N4CC(F)C4)nc3c2)nc1` [2-(3-fluoroazetidin-1-yl)-5-[(5-methoxypyridin-2-yl)methoxy]-1,3-benzoxazole] gave an IC50 of 100 to 500 nM.
In the case of `COc1ccc(COc2ccc3oc(-c4ccc(OC)cn4)nc3c2)nc1` [2-(5-methoxypyridin-2-yl)-5-[(5-methoxypyridin-2-yl)methoxy]-1,3-benzoxazole], the IC50 is under 100 nM.
Compound `c1cncc(COc2ccc3oc(-c4cccnc4)nc3c2)c1` [2-(pyridin-3-yl)-5-(pyridin-3-ylmethoxy)-1,3-benzoxazole] yielded an IC50 of under 100 nM.
The compound `c1cncc(COc2ccc3nc(-c4cccnc4)oc3c2)c1` [2-(pyridin-3-yl)-6-(pyridin-3-ylmethoxy)-1,3-benzoxazole] returned an IC50 of under 100 nM.
The result for `c1cnc(Nc2ccc3oc(-c4cccnc4)nc3c2)nc1` [2-(pyridin-3-yl)-N-(pyrimidin-2-yl)-1,3-benzoxazol-5-amine] reads under 100 nM; that for `c1cncc(-c2nc3cc(Nc4ccncn4)ccc3o2)c1` [2-(pyridin-3-yl)-N-(pyrimidin-4-yl)-1,3-benzoxazol-5-amine], under 100 nM.
As to `COc1ccc(C(Nc2cnc3oc(-c4cccnc4)nc3c2)C(F)(F)F)cc1` (stereo not shown) [2-(pyridin-3-yl)-N-[2,2,2-trifluoro-1-(4-methoxyphenyl)ethyl]-[1,3]oxazolo[5,4-b]pyridin-6-amine], the IC50 was over 50 nM.

The IC50 is the concentration that gives 50% inhibition.
